According to US20040214192A1, “Methods of testing for allergic diseases and therapeutic agents for treating same” (Genox Research, Inc., priority 2002, published 2004):

T1: LBD of Nor1 (Homo sapiens, UniProt Q92570)
T1 construct: GST-LBD of Nor1 was expressed in E. coli and purified; GST (N); made in house; host or cells: E. coli
T1 sequence (Q92570 394-623 limits assumed): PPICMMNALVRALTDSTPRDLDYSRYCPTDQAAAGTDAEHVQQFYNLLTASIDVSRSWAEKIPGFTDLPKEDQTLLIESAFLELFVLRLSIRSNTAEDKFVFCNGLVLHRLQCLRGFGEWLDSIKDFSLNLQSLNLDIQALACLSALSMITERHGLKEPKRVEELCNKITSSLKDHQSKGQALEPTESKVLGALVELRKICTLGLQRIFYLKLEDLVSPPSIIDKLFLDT

B1: IL-4: cytokine used to activate eosinophils (protein, UniProt P05112 25-153, looked up)
Interleukin-4: HKCDITLQEIIKTLNSLTEQKTLCTELTVTDIFAASKNTTEKETFCRAATVLRQFYSHHEKDTRCLGATAQQFHRHKQLIRFLKRLDRNLWGLAGLNSCPVKEANQSTLENFLERLKTIMREKYSKCSS

Legend:
[1] = target: T2, full-length NOR-1 (MINOR) (Homo sapiens, UniProt Q92570); assay: Mammalian Two Hybrid luciferase reporter, GAL4-full-length Nor1 construct; format: cell-based; details: for Full length Nor1-ligand activity RXR(+) / Full length Nor1-ligand activity RXR(−): NIH3T3 cells, luciferase; for Full length Nor1-ligand activity RXR(+): with RXRα; for function of enhancing the transcriptional activation ability of NOR-1 (MINOR): luciferase reporter system; for Full length Nor1-ligand activity RXR(−): without RXRα
T2 construct: Full length Nor1-; expressed in transfected cells; host or cells: NIH3T3
T2 sequence (Q92570 whole entry, the tested form may be a part): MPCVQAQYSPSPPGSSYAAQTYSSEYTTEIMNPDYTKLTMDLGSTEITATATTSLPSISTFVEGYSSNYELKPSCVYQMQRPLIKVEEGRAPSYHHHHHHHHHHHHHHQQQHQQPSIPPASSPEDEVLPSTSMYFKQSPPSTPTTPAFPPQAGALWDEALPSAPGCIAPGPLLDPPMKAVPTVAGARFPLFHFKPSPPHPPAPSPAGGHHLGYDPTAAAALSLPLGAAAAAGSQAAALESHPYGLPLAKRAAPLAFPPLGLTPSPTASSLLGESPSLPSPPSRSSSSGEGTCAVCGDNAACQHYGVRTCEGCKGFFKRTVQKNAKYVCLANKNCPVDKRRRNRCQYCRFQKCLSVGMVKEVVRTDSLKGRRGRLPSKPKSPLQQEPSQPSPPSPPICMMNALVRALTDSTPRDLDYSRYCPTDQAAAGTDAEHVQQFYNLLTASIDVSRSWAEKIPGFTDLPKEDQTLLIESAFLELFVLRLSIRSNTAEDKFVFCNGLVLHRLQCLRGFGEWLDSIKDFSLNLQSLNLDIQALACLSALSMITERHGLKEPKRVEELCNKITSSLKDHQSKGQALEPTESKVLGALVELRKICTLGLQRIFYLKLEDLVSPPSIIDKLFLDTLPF
Experimental: A full-length gene or the ligand-binding site of NOR-1 is inserted into X, and the full-length gene of the retinoic acid X receptor (RXR)α is inserted into Y. These constructs are transfected into NIH3T3 cells, and the activity of induced luciferase is measured.
Mammalian Two Hybrid system was slightly modified. […] Actually, activity could not be detected for lipid-soluble metabolites existing on the metabolic map of mammals that might be natural ligands of NOR-1 in a screening system wherein only the ligand-binding domain was inserted. A plasmid wherein the full-length gene of NOR-1 (MINOR) had been inserted into pBIND and a luciferase reporter plasmid containing a GAL4 binding site were cotransfected into NIH3T3 cells, and the luciferase activity was measured automatically. By further addition of small molecule substances to this system enables screening of ligands by their transcription enhancing activity.
NOR-1 (MINOR) expression is induced under conditions where the leukocytes are hyperactive, such as in atopic dermatitis peripheral blood, and apoptosis of cells is very likely to occur as a result of this induced NOR-1 (MINOR) expression. Ligands existing in vivo may exist at sites where nuclear receptors are highly expressed. Therefore, small-molecule lipid-soluble mediators that are expected to be produced under such conditions were added to the assay system as candidate ligands to evaluate their luciferase activity enhancing function. […] Thus, the method established by the present inventors opened a way to discover native ligands and synthetic ligands of NOR-1 (MINOR) by high throughput.

LBD of Nor1 = target: T1, LBD of Nor1; assay: BIAcor S51 binding to GST-LBD of Nor1; details: BIAcor S51, comparison with GST
Description: Glutathione S-transferase (GST) was used as a comparison control and 13,14-Dihydro-15-keto-PGA2 as a negative control.
In the present invention, as a means for detecting or measuring bound compound, a biosensor utilizing surface plasmon resonance phenomenon may be used. A biosensor (for example, BIAcore, Pharmacia) utilizing the surface plasmon resonance phenomenon allows real-time observation of the interaction between the NOR-1 protein and a test compound as a surface plasmon resonance signal. Therefore, using biosensors such as BIAcore, the binding between the NOR-1 protein and the test compound can be evaluated.

[2] = tested on: Nor1 gene that completely lacked the LBD region (ΔLBD); assay: Mammalian Two Hybrid reporter with LBD deletion mutant of Nor1; format: cell-based, human; details: Nor1 lacking the LBD region
Description: Therefore, prostaglandin A2 was implicated to function by actually acting on the LBD region of the nuclear receptor.

[3] = tested on: Nor1 expression in peripheral blood eosinophils; assay: Nor1 expression induction in cultured peripheral blood eosinophils; format: cell-based, human; details: cultured peripheral blood eosinophils from healthy subjects
Description: Values collected for beta-actin and GAPDH are shown.
A large amount of peripheral blood eosinophils were collected from healthy subjects, and cultured in suspension in a petri dish while suppressing their activation. […] The anti-CD30 antibody that has an agonistic activity against eosinophilic CD30 has recently been receiving attention, because it induces apoptosis of eosinophils via a specific intracellular pathway and may serve as a therapeutic agent for asthma.
Thus, the apoptosis by anti-CD30 antibody accompanied by induction of Nor1 may occur through an eosinophil-specific apoptosis pathway that is different from the conventional pathway.

Molecule | Full length Nor1-ligand activity RXR(+) [1] | Full length Nor1-ligand activity RXR(+) ([1]; symbol) | function of enhancing the transcriptional activation ability of NOR-1 (MINOR) [1] | binding to the LBD of Nor1 (LBD of Nor1) | Full length Nor1-ligand activity RXR(−) [1] | Full length Nor1-ligand activity RXR(−) ([1]; symbol) | transcriptional activity with LBD deletion mutant [2] | induction of Nor1 [3]
CCCCC[C@H](O)/C=C/[C@H]1C=CC(=O)[C@H]1CCCCCCC(=O)O [8-iso Prostaglandin A1] | 10 µM | ∘ | – | – | – | – | – | –
CCCCCC(=O)CC[C@H]1C=CC(=O)[C@@H]1C/C=C\CCCC(=O)O [13,14-dihydro-15-keto Prostaglandin A2] | – | – | did not show any activity in the reporter system | did not bind to LBD | – | – | – | –
CCCCC[C@@](C)(O)/C=C/[C@H]1C=CC(=O)[C@@H]1C/C=C\CCCC(=O)O [15(R)-15-methyl Prostaglandin A2] | 10 µM | ∘ | enhancing the transcriptional activation ability of NOR-1 (MINOR) | – | 10 µM | ∘ | – | –
CCCCC/C=C\C=C1\C(=O)C=C[C@@H]1C/C=C\CCCC(=O)O [15-dioxy-Δ^12,14-Prostaglandin J2] | 10 µM | ∘ | – | – | – | – | – | –
CCCCC(C)(C)[C@H](O)/C=C/[C@H]1C=CC(=O)[C@@H]1C/C=C\CCCC(=O)O [16,16-dimethyl Prostaglandin A2] | 5 µM | ∘ | – | – | 5 µM | ∘ | – | –
O=C(O)CCC/C=C\C[C@H]1C(=O)C=C[C@@H]1/C=C/[C@@H](O)COc1ccccc1 [16-phenoxy tetranor Prostaglandin A2] | 30 µM | ∘ | enhancing the transcriptional activation ability of NOR-1 (MINOR) | – | 30 µM | ∘ | – | –
O=C(O)CCC/C=C\C[C@H]1C(=O)C=C[C@@H]1/C=C/[C@@H](O)CCc1ccccc1 [17-phenyl trinor Prostaglandin A2] | 10 µM | ∘ | enhancing the transcriptional activation ability of NOR-1 (MINOR) | – | 10 µM | ∘ | – | –
CCCCC[C@H](O)/C=C/[C@H]1C=CC(=O)[C@@H]1CCCCCCC(=O)O [Prostaglandin A1] | 10 µM | ∘ | enhancing the transcriptional activation ability of NOR-1 (MINOR) | binding of PGA1 and PGA2 to the LBD of Nor1 was detected | 10 µM | ∘ | – | –
CCCCC[C@H](O)/C=C/[C@H]1C=CC(=O)[C@@H]1C/C=C\CCCC(=O)O [Prostaglandin A2] | 10 µM | ∘ | enhancing the transcriptional activation ability of NOR-1 (MINOR) | binding of PGA1 and PGA2 to the LBD of Nor1 was detected | 10 µM | ∘ | remarkable suppression of the transcriptional activity | –
IL-5: cytokine used to activate eosinophils | – | – | – | – | – | – | – | did not lead to the induction of Nor1
B1 | – | – | – | – | – | – | – | did not lead to the induction of Nor1
